Key:
[1] = T1ρ relaxivity in H2^17O doped phosphate buffered saline phantoms; assay type: physicochemical; conditions: spin lock amplitude 100 Hz, 1.5T
Procedure: The ability of the sequence to detect changes in H2^17O concentration was measured by imaging six 15 mL conical tubes filled with 1× Phosphate Buffered Saline doped with H2^17O (Isotec, Miamisberg, Ohio) in steps of 5 mM from 20 mM (natural abundance) to 45 mM. These tubes were sealed and placed into a 9 cm jar filled with water. A receive only loop coil was placed around the jar and used in combination with the body transmit coil. Cross-sectional images of the tubes were acquired with a spin lock amplitude of 100 Hz and spin lock times of 200, 400, 600, 800, and 1000 msec. Imaging parameters are: FoV 90 mm^2, ST 5 mm, TR/TE 10.4/5.2 ms, Matrix 128^2, BW 130 Hz/Px, α=180°.
The concentrations of the phantoms were determined experimentally according to the following equation:
[formula] Where fn is the natural abundance [H2^17O], S is the signal from a pixel or ROI with natural abundance (NA) [H2^17O] or [H2^17O] added (^17O) taken as a proton density weighted image to account for coil sensitivity or when T1ρ pre-encoded (T1ρ). R1ρ is the relaxivity due to H2^17O and TSL is the spin lock time.
FIG. 12 provides cross-sectional images of 15 mL conical tubes filled with phosphate buffered saline and doped with increasing amounts of H2^17O to concentrations from 20 mM (natural abundance) to 45 mM (25 mM added).

[2] = Serial arterial blood sampling and ^17O NMR spectroscopy of serum during and after 1 minute of ^17O2 delivery; assay type: in vivo, pig
Procedure: During imaging, arterial blood sampling was performed on several occasions. An optimized protocol was developed and repeated. An arterial catheter was placed under ultrasound guidance into the femoral artery in the large animal fluoroscopy suite. Approximately 2 cc of blood was collected over 3-5 seconds into each Vacutainer Serum Separator Tube (Becton-Dickinson, #367983) at a rate of one sample each 10 seconds for the first 12 samples and then 60 seconds each for six more samples. Four control samples were taken before the experiment began. The tubes used are designed to reseal immediately after needle puncture. Their ability to remain sealed was tested by taking several tubes at random, creating a strong negative pressure inside the tube with a vacuum pump attached to a needle, and then repeated puncture with larger diameter needles than used for blood sampling. The pressure inside the tubes was checked after over a dozen punctures and had changed less than 10%.
A concern is that water ^17O will exchange with ambient CO2 through bicarbonate ion, a very fast reaction when catalyzed by carbonic anhydrase as in whole blood (Mills G A, Urey H C. The Kinetics of Isotopic Exchange between Carbon Dioxide, Bicarbonate Ion, Carbonate Ion and Water. J Am Chem Soc 1940; 62 (5):1019-1026). To minimize this effect, serum was separated by centrifugation soon after the experiment. Tubes were then frozen at −20 C and kept sealed until the time of analysis. Centrifugation places a gel between the serum and red blood cells in these tubes to fully separate the two. This procedure serves to protect the samples in two ways. […]
An 11.7T Bruker DMX400 Avance Spectrometer equipped with a 1H/X nucleus decoupler probe tuned to ^17O was used to measure 1 mL of each sample loaded into 5 mm ID NMR tubes just before analysis. Spectra were recorded without lock at room temp. […]
Blood sampling was performed during scanning on two separate occasions. […] Serum concentration of H2^17O was calculated by integrating the H2^17O peak obtained by ^17O spectroscopy of the blood samples taken at the given time points. […]

[3] = measurements made in tissue phantoms; cited from earlier work
pig brain = experiment: Pulsed ^17O2 inhalation (2 breaths, 40% enrichment) with T1ρ-weighted MRI of pig brain at 1.5 Tesla; assay type: in vivo; conditions: 70 Kg pig; ventricle signal normalized to whole brain
Procedure: To further test the apparatus 100, a 70 Kg Yorkshire pig was anesthetized with intramuscular doses of ketamine (25 mg/Kg) and xylazine (2.5 mg/Kg) and orally intubated. General anesthesia was maintained throughout the experiment with intravenous doses of ketamine (1-2 mg/Kg/hr) and diazepam (0.5-1 mg/Kg/hr). Once placed in the MRI scanner 114 in the prone position, the endotracheal tube was connected to the circuit and mechanical ventilation commenced in volume control mode with a tidal volume of 16.2 ml/Kg, a respiratory rate of 6 breaths/min, I:E ratio of 1:1 and zero end-expiratory pressure. After collecting baseline images on room air, the source valve was switched to 100% O2. After 5 minutes to allow for denitrogenation, further baseline images were obtained while breathing 100% oxygen. […]
Overlay of the signal decreases, ranging from 0% decrease to 1% decrease, an average of 40-50 seconds after the start of the ^17O2 breaths, as determined by indirect T1ρ imaging with a spin-lock sequence. […]
The time course of arterial ^17O2 concentrations, estimated from a model of alveolar gas dilution (appendix), is shown in FIG. 5a. […] Inspiratory tidal volume is measured from the calibrated output of the inhalation pump 102. […]

[17OH2] [H2^17O]
R1ρ(100 Hz) [1]: 1.37e-05 mM⁻¹ ms⁻¹
delay between the start of ^17O2 delivery and the start of wash-in in arterial blood ([2]; 19.8 kg pig, second experiment): ~70 s
delay between the start of ^17O2 delivery and the start of wash-in in arterial blood ([2]; 40.8 kg pig, 80% N2/20% O2 (70% ^17O enriched) for 60 seconds, femoral artery serum): about 90 seconds
time when recirculation begins ([2]; arterial blood sampling and analysis of mH2^17O content, pigs): 60 to 80 s
R1ρ, relaxation enhancement of tissue due to H2^17O [3]: 5.91*10^−6 (μmol/g water)^−1 ms^−1

O=O [^17O2]
delay of decrease in scaled signal in the cerebral ventricle after the initial inhalation of ^17O2 (pig brain): about 110 seconds

Reference: patent US8554305B2, “Method and apparatus for providing pulses inhalation of 17O2 for magnetic resonance imaging of cerebral metabolism” (The Trustees of the University of Pennsylvania, priority 2007, dated 2013)
